Calls of active or inactive are those of the source.
Legend:
[1] = luciferase reporter signal suppression in cells – H4 neuroglioma cells, luminescence, dose response (AID 1990); assay type: functional, cell-based
[2] = Luminescence Cell-Based Dose Response HTS to Identify Inhibitors of 5'UTR Stem-Loop Driven Prion Protein mRNA Translation in H4 Neuroglioblastoma Cells. [Related pubchem assays: 1827 (Project Summary), 1813 (Primary HTS)]; assay type: functional
[3] = alpha-synuclein stem-loop luciferase translation blockers – H4 neuroglioma cells, luminescence, confirmation (AID 1988); assay type: functional, cell-based
[4] = HEK-293T viability loss after treatment – luminescence, T-cell screen hits, cytotoxicity control for TCR NF-kB inhibitor project, dose response (AID 489026); assay type: functional, cell-based;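 note: cells exposed to compound about 14 hours before the viability readout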
[5] = microbe, parasite or virus in culture; assay type: functional; details: Mycobacterium tuberculosis
Nonstructural protein 1 = Nonstructural protein 1 (Influenza A virus, UniProt Q194T2); assay type: functional, Influenza A virus (A/California/07/2009(H1N1))
Chain of Nonstructural protein 1 (Q194T2 whole entry): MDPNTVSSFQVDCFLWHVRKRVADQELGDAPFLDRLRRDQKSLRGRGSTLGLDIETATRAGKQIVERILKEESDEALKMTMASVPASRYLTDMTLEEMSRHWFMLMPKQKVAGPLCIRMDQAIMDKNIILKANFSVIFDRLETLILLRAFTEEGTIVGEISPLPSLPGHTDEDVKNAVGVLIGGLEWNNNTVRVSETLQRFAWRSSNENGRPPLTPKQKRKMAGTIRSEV

[6] = biological target: T1, High affinity choline transporter 1 (Homo sapiens, UniProt Q9GZV3); test: human choline transporter blockers, potency – cell-based, 5-point CRC, membrane potential dye, dose response (AID 504840); assay type: functional
T1 sequence (Q9GZV3 whole entry): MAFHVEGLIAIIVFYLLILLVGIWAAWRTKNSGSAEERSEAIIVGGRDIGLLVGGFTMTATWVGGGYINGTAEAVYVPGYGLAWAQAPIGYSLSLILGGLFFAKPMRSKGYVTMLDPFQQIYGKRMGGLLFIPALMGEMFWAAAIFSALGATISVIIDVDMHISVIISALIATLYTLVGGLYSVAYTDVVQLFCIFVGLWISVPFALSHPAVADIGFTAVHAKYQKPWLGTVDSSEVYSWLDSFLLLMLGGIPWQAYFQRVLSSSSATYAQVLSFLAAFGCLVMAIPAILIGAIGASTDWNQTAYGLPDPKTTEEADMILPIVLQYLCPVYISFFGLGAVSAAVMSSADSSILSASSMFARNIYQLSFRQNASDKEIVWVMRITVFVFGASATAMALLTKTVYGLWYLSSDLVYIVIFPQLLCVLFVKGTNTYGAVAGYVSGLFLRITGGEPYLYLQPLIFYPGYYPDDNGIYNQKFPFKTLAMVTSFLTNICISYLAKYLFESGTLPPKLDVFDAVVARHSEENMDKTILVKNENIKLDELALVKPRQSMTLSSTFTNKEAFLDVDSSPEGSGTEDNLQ

[7] = biological target: T2, Short transient receptor potential channel 4 (Mus musculus, UniProt Q9QUQ5); test: calcium entry via TRPC4 opening agents – cell-based, HEK293 TRPC4/mu-opioid, Fluo-4 calcium, dose response (AID 434937); assay type: functional
T2 sequence (Q9QUQ5 whole entry): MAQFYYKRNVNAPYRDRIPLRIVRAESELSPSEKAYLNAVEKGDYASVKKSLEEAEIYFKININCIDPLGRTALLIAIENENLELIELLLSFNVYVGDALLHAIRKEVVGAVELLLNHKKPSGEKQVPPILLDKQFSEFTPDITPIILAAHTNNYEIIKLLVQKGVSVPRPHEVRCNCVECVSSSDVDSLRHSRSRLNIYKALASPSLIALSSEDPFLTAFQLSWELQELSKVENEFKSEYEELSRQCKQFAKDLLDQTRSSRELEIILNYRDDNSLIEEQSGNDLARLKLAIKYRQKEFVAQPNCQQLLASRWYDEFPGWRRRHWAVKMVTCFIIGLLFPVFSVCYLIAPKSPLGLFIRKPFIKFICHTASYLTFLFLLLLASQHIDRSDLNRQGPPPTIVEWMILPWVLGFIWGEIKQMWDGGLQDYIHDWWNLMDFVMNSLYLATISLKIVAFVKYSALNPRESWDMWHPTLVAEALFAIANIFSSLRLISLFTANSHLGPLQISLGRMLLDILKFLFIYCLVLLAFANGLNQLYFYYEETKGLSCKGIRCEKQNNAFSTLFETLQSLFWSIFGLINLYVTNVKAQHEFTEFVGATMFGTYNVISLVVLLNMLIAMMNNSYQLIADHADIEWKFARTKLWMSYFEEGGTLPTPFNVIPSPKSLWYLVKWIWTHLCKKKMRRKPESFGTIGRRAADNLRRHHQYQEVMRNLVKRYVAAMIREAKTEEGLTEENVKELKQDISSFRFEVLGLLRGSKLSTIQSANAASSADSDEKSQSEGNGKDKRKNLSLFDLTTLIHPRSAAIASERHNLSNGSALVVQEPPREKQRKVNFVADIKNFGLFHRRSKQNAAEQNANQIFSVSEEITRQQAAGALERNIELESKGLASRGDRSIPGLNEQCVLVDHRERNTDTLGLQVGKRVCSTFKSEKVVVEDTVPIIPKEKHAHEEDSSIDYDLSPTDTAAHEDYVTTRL

Vero = test: cells; assay type: functional; details: Chlorocebus sabaeus
[8] = biological target: T3, Corticotropin-releasing factor receptor 2/Corticotropin-releasing factor-binding protein (Homo sapiens, UniProt P24387+Q13324); test: activators of CRF receptor 2 with binding protein – uHTS hits, confirmation (AID 602473); assay type: functional; details: read-out: EC50_Mean
T3 sequence (Q13324 whole entry): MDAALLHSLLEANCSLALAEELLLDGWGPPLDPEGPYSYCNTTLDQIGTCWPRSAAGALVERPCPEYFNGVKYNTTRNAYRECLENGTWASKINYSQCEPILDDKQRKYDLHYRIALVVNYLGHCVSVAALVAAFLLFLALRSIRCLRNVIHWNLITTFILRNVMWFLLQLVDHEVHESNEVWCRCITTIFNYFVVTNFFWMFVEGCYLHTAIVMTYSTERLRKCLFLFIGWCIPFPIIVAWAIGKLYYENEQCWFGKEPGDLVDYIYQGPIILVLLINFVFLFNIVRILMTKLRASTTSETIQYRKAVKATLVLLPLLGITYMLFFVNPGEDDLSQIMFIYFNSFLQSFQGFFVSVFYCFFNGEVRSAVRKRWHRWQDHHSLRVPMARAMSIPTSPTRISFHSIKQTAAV
T3 sequence (P24387 whole entry): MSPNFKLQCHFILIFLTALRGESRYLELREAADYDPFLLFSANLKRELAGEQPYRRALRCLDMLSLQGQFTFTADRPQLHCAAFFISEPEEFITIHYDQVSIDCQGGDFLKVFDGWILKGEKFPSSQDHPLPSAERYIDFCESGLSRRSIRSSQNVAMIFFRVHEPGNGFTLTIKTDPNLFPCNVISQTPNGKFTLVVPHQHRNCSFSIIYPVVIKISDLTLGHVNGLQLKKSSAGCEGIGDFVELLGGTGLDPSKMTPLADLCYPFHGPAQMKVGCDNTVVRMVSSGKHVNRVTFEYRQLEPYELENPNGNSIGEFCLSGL

[9] = HGIII-sPLA2 enzyme inhibition potency – biochemical, QFRET, IC50, dose response (AID 743457);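 note: green fluorescence rise as the enzyme cleaves BODIPY PC-A2 in liposomes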
HEK293 [10] = test: inhibition of NOD1-driven NF-kB reporter – cell-based, luminescence, uHTS, primary screen (AID 1578); assay type: functional; details: Homo sapiens
[11] = test system: Streptococcus sp. 'group A'; test: Streptococcus pyogenes SK(-)GAS viability under kanamycin – luminescence, BacTiterGlo, confirmation, counter-screen for streptokinase expression inhibitor project, dose response (AID 1900); assay type: functional, organism-based
HEK293 [12] = test: cells; assay type: functional, cell-based; details: Homo sapiens
Streptokinase A = biological target: T4, Streptokinase A (Streptococcus pyogenes serotype M1, UniProt P10520); test: viability-normalized secreted streptokinase activity reduction – plasminogen activation absorbance, OD405, dose response (AID 1914); assay type: functional, Streptococcus pyogenes M1 GAS;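 note: secreted streptokinase activity via plasminogen activation per viability signal from cell pellet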
T4 sequence (P10520 whole entry): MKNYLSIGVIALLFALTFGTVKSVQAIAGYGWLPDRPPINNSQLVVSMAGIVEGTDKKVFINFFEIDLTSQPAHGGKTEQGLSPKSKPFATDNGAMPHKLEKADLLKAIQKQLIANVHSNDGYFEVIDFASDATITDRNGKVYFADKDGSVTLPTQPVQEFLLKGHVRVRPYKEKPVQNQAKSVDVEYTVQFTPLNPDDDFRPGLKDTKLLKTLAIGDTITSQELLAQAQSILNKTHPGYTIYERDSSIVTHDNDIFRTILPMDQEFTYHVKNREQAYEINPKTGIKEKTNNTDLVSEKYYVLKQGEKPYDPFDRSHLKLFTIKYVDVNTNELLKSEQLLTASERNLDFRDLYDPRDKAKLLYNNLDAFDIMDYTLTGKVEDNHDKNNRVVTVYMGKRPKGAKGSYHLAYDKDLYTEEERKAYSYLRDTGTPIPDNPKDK

HEK293 [13] = test: cells; assay type: functional, cell-based; details: Homo sapiens; remark: listed apart in the source
HEK293 [14] = test: NOD2 signaling inhibitors in MDP-stimulated cells, cell-based, uHTS, luminescence (AID 2001); assay type: functional; details: Homo sapiens
Streptococcus = test: GAS UMAA2166 growth inhibition – luminescence, BacTiterGlo, counter-screen for streptokinase expression inhibitor project, dose response (AID 1915); assay type: functional, organism-based;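 note: potency for reduction of bacterial viability or growth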
INS1 = test: INS-1E survival protection against cytokine death – cell-based, luminescence, retest, dose response (AID 449756); assay type: functional; details: Rattus norvegicus;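 note: cell death triggered by IL-1 beta plus TNF-alpha plus IFN-gamma mixture; protective hits raise ATP signal compared with cytokine alone wells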
[15] = Luminescence Cell-Based Dose Retest to Confirm Inhibitors of Cancer Stem Cells. [Related pubchem assays (depositor defined):AID2717, AID2721]; assay type: functional; details: Homo sapiens

Structure (SMILES): COc1ccccc1NC(=O)C1=C(C)Nc2nc3ccccc3n2C1c1cccs1 (stereo unspecified)
- EC50 [1]: 7.89 µM (inconclusive)
- EC50 [2]: 9.88 µM (active)
- EC50 [3]: 5.03 µM (active)
- IC50 [4]: > 80 µM (inactive)

Structure (SMILES): N#CC(C#N)=c1ccc2c(c1)N1C3=C(CCCC3)CC3CCCCC31N=2 (stereo unspecified)
- CC50 [5]: 29.5 µM (active)
- IC50 (Nonstructural protein 1): 11.2 µM (active)
- IC50 [6]: 11 µM (active)

Structure (SMILES): O=C(NNC(=S)NC(=O)c1ccccc1Cl)c1cccc([N+](=O)[O-])c1
- EC50 [7]: 5.96 µM (active)
- CC50 (Vero): > 25 µM (active)
- EC50 [8]: 11.2 µM (active)
- IC50 [9]: 22.3 µM (inactive)

Structure (SMILES): O=C(Nc1ccc([N+](=O)[O-])cc1)Nc1ccc(Cl)cc1F
- EC50 (HEK293 [10]): 18.7 µM (active)
- EC50 [11]: > 150 µM (not active)
- IC50 (HEK293 [12]): 3.12 µM (active)
- EC50 (Streptokinase A): > 150 µM (not active)
- IC50 (HEK293 [13]): > 20 µM (inactive)
- IC50 (HEK293 [14]): 3.26 µM (inactive)
- EC50 (Streptococcus): > 150 µM (not active)
- AC50 (INS1): 3.73 µM (active)

Structure (SMILES): Cc1ccc(C(=O)CSc2nnc(-c3ccco3)n2C)cc1
- IC50 [6]: 9.62 µM (active)

Structure (SMILES): O=C(Nc1ccc(S(=O)(=O)N2CCOCC2)cc1)c1cc(-c2cc(Cl)ccc2O)n[nH]1
- EC50 (HEK293 [10]): > 20 µM (inactive)
- IC50 (HEK293 [12]): 6.05 µM (active)
- IC50 (HEK293 [13]): 7.45 µM (active)
- IC50 (HEK293 [14]): 6.8 µM (active)
- AC50 [15]: 0.962 µM (active)
- CC50 (Vero): 10.9 µM (active)

Reference: ChEMBL document CHEMBL1201862, “PubChem BioAssay data set” (2004)
